Consider eight compounds from patent US4528133A, “Biologically active tripeptide and tetrapeptide alkylamides, and method for the preparation thereof” (SPOFA, spojene podniky pro zdravotnickou vyrobu, priority 1982, dated 1985).

Structures are written as SMILES. Read-outs that look alike come from different tables or passages of the source. Where a SMILES comes first, the peptide text is derived from it. The star is where a group is joined. Undecanoyl = CCCCCCCCCCC(=O)*; Cbz = O=C(OCc1ccccc1)*; Butyryl = CCCC(=O)*; NHiBu = CC(C)CN*; NHPr = CCCN*

For experiment [1], the target named is pancreatic elastase (UniProt P00772). The experiment can be described thus: Inhibition of pancreatic elastase (PE), Ki with synthetic nitroanilide substrates. The class given is biochemical.
The target of experiment [2] is T1, leucocytal elastase (Homo sapiens, UniProt P08246).
T1 sequence (P08246 30-267): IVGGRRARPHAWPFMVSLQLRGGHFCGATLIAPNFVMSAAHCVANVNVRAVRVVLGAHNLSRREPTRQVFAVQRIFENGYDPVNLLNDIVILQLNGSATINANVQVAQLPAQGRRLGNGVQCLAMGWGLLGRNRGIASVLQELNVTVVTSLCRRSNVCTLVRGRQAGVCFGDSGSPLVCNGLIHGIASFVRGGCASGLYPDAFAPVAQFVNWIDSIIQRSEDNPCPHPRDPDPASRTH
The experiment is described as follows: Inhibition of leucocytal elastase (LE), Ki with synthetic nitroanilide substrate. Particulars: substrate Glt-(Ala)3-Val-Nan; for Ki: read-out: Inhibition constant Ki, LE, Glt--(Ala)3--Val--Nan. The class given is biochemical.

The mark [3] stands for this setting: substrate Glt-(Ala)4-Nan, read-out: Inhibition constant Ki, PE, Glt--(Ala)4--Nan.
Setting [4] is: substrate Suc-(Ala)4-Nan, read-out: Inhibition constant Ki, PE, Suc--(Ala)4--Nan.

Sequence of pancreatic elastase (P00772 27-266): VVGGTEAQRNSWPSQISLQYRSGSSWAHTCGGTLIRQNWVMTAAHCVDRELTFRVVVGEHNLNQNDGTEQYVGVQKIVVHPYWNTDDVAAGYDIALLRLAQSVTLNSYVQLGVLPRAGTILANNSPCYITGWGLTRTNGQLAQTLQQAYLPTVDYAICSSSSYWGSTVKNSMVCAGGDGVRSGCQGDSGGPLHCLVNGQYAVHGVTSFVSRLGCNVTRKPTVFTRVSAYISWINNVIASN

In the case of `CCNC(=O)[C@H](C)NC(=O)[C@H](C)NC(=O)[C@@H]1CCCN1C(=O)[C@H](CC(=O)O)NC(C)=O` [Ac--Asp--Pro--Ala--Ala--NH--Et, N^α -Acetylaspartyl-prolyl-alanyl-alanine ethylamide] (Ac-DPAA-NHEt), the figures for the Ki in experiment [1] (setting [3]), in experiment [1] (setting [4]) and in experiment [2] were 34 µM, 25 µM and 1000 µM, respectively.

Regarding `CCCC(=O)N[C@@H](CC(=O)O)C(=O)N[C@@H](C)C(=O)N[C@@H](C)C(=O)N1CCC[C@H]1C(=O)NCC(C)C` [Btr--Asp--Ala--Ala--Pro--NH--iBu, N^α -Butyrylaspartyl-alanyl-alanyl-proline isobutylamide] (Butyryl-DAAP-NHiBu), the values for the Ki in experiment [1] (setting [3]), in experiment [1] (setting [4]) and in experiment [2] were 120 µM, 120 µM and 136 µM, respectively.

Regarding `CCCNC(=O)[C@@H]1CCCN1C(=O)[C@H](C)NC(=O)[C@H](C)NC(=O)[C@H](CCC(=O)O)NC(=O)CCC` [Btr--Glu--Ala--Ala--Pro--NH--Pr] (Butyryl-EAAP-NHPr), the Ki was 193 µM in experiment [1] (setting [3]), 178 µM in experiment [1] (setting [4]) and 180 µM in experiment [2].

Consider `CCCCCCCCCC=CCC(CC(=O)O)C(=O)N[C@@H](C)C(=O)N[C@@H](C)C(=O)N[C@@H](C)C(=O)NCC` (some centres unmarked) [Dde--Ala--Ala--Ala--NH--Et, N-(2-Dodecenylsuccinyl)alanyl-alanyl-alanine ethylamide], for which the Ki in experiment [1] (setting [3]) was found to be 1.8 µM; in experiment [1] (setting [4]), 2.5 µM. For the same compound, the “Inhibition constant Ki, LE, Glt--(Ala)3--Val--Nan” value in experiment [2] was “no inhibition”.

Regarding `CCCCCCCCCC=CCC(CC(=O)O)C(=O)N[C@@H](C)C(=O)N[C@@H](C)C(=O)N[C@@H](C)C(=O)NCC(C)C` (some centres unmarked) [Dde--Ala--Ala--Ala--NH--iBu], the inhibition constant (Ki) came out at 93 µM in experiment [1] (setting [3]), 99 µM in experiment [1] (setting [4]) and 515 µM in experiment [2].

As to `CCCCCCCCCC=CCC(CC(=O)O)C(=O)N[C@@H](C)C(=O)N[C@@H](C)C(=O)N1CCC[C@H]1C(=O)NCCC` (some centres unmarked) [Dde--Ala--Ala--Pro--NH--Pr, N-(2-Dodecenylsuccinyl)alanyl-alanyl-proline propylamide], the results for the Ki in experiment [1] (setting [3]), in experiment [1] (setting [4]) and in experiment [2] were 0.6 µM, 0.5 µM and 100 µM, respectively.

With `CCCCCCCCCCC(=O)N[C@@H](CC(=O)O)C(=O)N[C@@H](C)C(=O)N[C@@H](C)C(=O)N1CCC[C@H]1C(=O)NCC` [UDA--Asp--Ala--Ala--Pro--NH--Et, N^α -Undecanoylaspartyl-alanyl-alanyl-proline ethylamide] (Undecanoyl-DAAP-NHEt), the Ki worked out at 5.4 µM in experiment [1] (setting [3]) and 12 µM in experiment [2].

`CCNC(=O)[C@H](C)NC(=O)[C@H](C)NC(=O)[C@H](C)NC(=O)[C@H](CCC(=O)O)NC(=O)OCc1ccccc1` [Z--Glu--Ala--Ala--Ala--NH--Et] (Cbz-EAAA-NHEt): the inhibition constant Ki in experiment [1] (setting [3]) was 173 µM; in experiment [1] (setting [4]), 28 µM; in experiment [2], 720 µM.
